Reference: patent US20180178031A1, “DENTAL DEVICE AND PHOTODYNAMIC THERAPEUTIC SYSTEM USING SAME” (priority 2016, published 2018)

Assays:
[1] = tested on: gram negative (G (−)) bacteria (Aggregatibacter actinomycetemcomitans, Fusobacterium nucleatum, Porphyromonas gingivalis); experiment: photodynamic therapy bacterial disinfection assay in vitro, G (−) bacteria; format: cell-based; conditions: photosensitizer plus infrared laser ray 808 nanometers, irradiating about 5 minutes, in vitro (FIG. 8)
Source text: (§1) One group assay represents the different bacterial disinfection by using the photodynamic therapy method in vitro with a specific irradiated wavelength of the light, and the other group assay represents the different bacterial disinfection by using the photodynamic therapy method in vitro with a specific compound X and the specific irradiated wavelength of the light. […] The light is infrared laser ray. The specific irradiated wavelength of the infrared laser ray of is 808 nanometers. The specific compound X is a photosensitizer. The photosensitizer is the indocyanine green dye. The period of irradiating the bacteria is about 5 minutes. The bacteria include gram positive (G (+)) bacteria and gram negative (G (−)) bacteria. The G (+) bacteria include a Streptococcus mutans (S. mutans) and a Streptococcus sobrinus (S. sobrinus). The G (−) bacteria include an Aggregatibacter actinomycetemcomitans (A. actinomycetemcomitans), a Fusobacterium nucleatum (F. nucleatum), and a Porphyromonas gingivalis (P. gingivalis).

[2] = tested on: gram positive (G (+)) bacteria (Streptococcus mutans, Streptococcus sobrinus); experiment: photodynamic therapy bacterial disinfection assay in vitro, G (+) bacteria; format: cell-based; conditions: photosensitizer plus infrared laser ray 808 nanometers, irradiating about 5 minutes, in vitro (FIG. 8)
Source text: as §1

CC1(C)C(/C=C/C=C/C=C/C=C2\N(CCCCS(=O)(=O)O)c3ccc4ccccc4c3C2(C)C)=[N+](CCCCS(=O)(=O)[O-])c2ccc3ccccc3c21 [compound X, indocyanine green]
percentage growth rate of the bacteria [1]: less than 20% | percentage growth rate of the bacteria [2]: zero
